Measurements taken from PubChem BioAssay AID256 (DTP/NCI, 2004).
Where “and” joins values, the source holds several entries; their conditions need not be identical. Equal entries are not always repeated. Inconclusive results and toxic doses are left out. Rule for the calls: active = survival T/C of 150% or more; inactive = T/C below 125% in these data.

System: CD2F1 mice, L1210 leukemia ip, survival T/C
Experiment: NCI In Vivo Anticancer Drug Screen. Data for tumor model L1210 Leukemia (intraperitoneal) in CD2F1 (CDF1) mice
Conditions: endpoint: mean survival time, higher = longer survival
Outline: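 Activity against a transplanted murine tumor was judged by comparing the compound group with a vehicle group. The outcome in the treated animals was divided by that in the controls.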

[1] = dose: 12.5 mg/kg/injection, schedule: Q01DX009 (ip), vehicle: water
[2] = dose: 25.0 mg/kg/injection, schedule: Q01DX009 (ip), vehicle: water
[3] = dose: 50.0 mg/kg/injection, schedule: Q01DX009 (ip), vehicle: water
[4] = dose: 100.0 mg/kg/injection, schedule: Q01DX009 (ip), vehicle: saline with Tween-80
[5] = dose: 100.0 mg/kg/injection, schedule: Q04DX003 (ip), vehicle: saline with Tween-80
[6] = dose: 200.0 mg/kg/injection, schedule: Q01DX009 (ip), vehicle: saline with Tween-80
[7] = dose: 200.0 mg/kg/injection, schedule: Q04DX003 (ip), vehicle: saline with Tween-80
[8] = dose: 400.0 mg/kg/injection, schedule: Q04DX003 (ip), vehicle: saline with Tween-80
[9] = dose: 75.0 mg/kg/injection, schedule: Q01DX001 (ip), vehicle: saline
[10] = dose: 100.0 mg/kg/injection, schedule: Q04DX002 (ip), vehicle: saline with Tween-80
[11] = dose: 200.0 mg/kg/injection, schedule: Q04DX002 (ip), vehicle: saline with Tween-80
[12] = dose: 100.0 mg/kg/injection, schedule: Q01DX001 (ip), vehicle: saline with Tween-80
[13] = dose: 200.0 mg/kg/injection, schedule: Q01DX001 (ip), vehicle: saline with Tween-80
[14] = dose: 100.0 mg/kg/injection, schedule: Q04DX003 (ip), vehicle: saline
[15] = dose: 200.0 mg/kg/injection, schedule: Q04DX003 (ip), vehicle: saline
[16] = dose: 100.0 mg/kg/injection, schedule: Q01DX009 (ip), vehicle: saline
[17] = dose: 400.0 mg/kg/injection, schedule: Q01DX001 (ip), vehicle: saline with Tween-80
[18] = dose: 25.0 mg/kg/injection, schedule: Q04DX002 (ip), vehicle: saline with Tween-80
[19] = dose: 50.0 mg/kg/injection, schedule: Q04DX002 (ip), vehicle: saline with Tween-80

Measured: T/C

C[N+]1(CCC(c2ccccc2)c2ccccc2)CCCCC1
inactive: dose: 12.5 mg/kg/injection, schedule: Q04DX003 (ip), vehicle: saline 96 % of control | dose: 25.0 mg/kg/injection, schedule: Q04DX003 (ip), vehicle: saline 104 % of control | dose: 50.0 mg/kg/injection, schedule: Q04DX003 (ip), vehicle: saline 102 % of control

COc1ccc(-c2nccc3cc(OC)c(OC)cc23)cc1OC
inactive: [1] 95 % of control | [2] 95 % of control | [3] 103 % of control

O=c1c([N+](=O)[O-])cn(O)cc1[N+](=O)[O-]
inactive: dose: 100.0 mg/kg/injection, schedule: Q01DX001 (ip), vehicle: alkali diluted with saline 100 % of control | dose: 200.0 mg/kg/injection, schedule: Q01DX001 (ip), vehicle: alkali diluted with saline 94 % of control | dose: 400.0 mg/kg/injection, schedule: Q01DX001 (ip), vehicle: alkali diluted with saline 100 % of control

O=C(C[n+]1csc2ccccc21)c1ccccc1
inactive: [4] 106 % of control | [5] 97 % of control | [6] 92 % of control | [7] 106 % of control | dose: 400.0 mg/kg/injection, schedule: Q01DX009 (ip), vehicle: saline with Tween-80 87 % of control | [8] 109 % of control

CCOC(=O)C(C)(C)C(OP(=O)(OCC)OCC)=C(C)C
inactive: [9] 103 % of control | dose: 150.0 mg/kg/injection, schedule: Q01DX001 (ip), vehicle: saline 97 % of control | dose: 300.0 mg/kg/injection, schedule: Q01DX001 (ip), vehicle: saline 100 % of control

Nc1nc2c(ncn2-c2cccc(NC(=O)Nc3ccc(S(=O)(=O)F)cc3)c2)c(=O)[nH]1 (tested in a mixture with another compound)
inactive: [10] 94 % of control | [11] 105 % of control | dose: 400.0 mg/kg/injection, schedule: Q04DX002 (ip), vehicle: saline with Tween-80 86 % of control

C1CCC2NN=NC2C1 (stereo unspecified)
inactive: [12] 104 % of control | [13] 98 % of control

COc1ccc([N+]2=Cc3cc(OC)c(OC)cc3CC2)cc1OC
inactive: [1] 89 % of control | [2] 94 % of control | [3] 97 % of control | dose: 100.0 mg/kg/injection, schedule: Q01DX009 (ip), vehicle: water 91 % of control

O=c1sc(N=Nc2ccccc2)nn1-c1ccccc1
inactive: [14] 92 % of control | [15] 91 % of control

CC(=O)NNC(=O)c1ccccc1N=NN(C)C
inactive: dose: 18.75 mg/kg/injection, schedule: Q01DX009 (ip), vehicle: Klucel (hydroxypropylcellulose) (HPC) 94 % of control and 100 % of control | dose: 37.5 mg/kg/injection, schedule: Q01DX009 (ip), vehicle: Klucel (hydroxypropylcellulose) (HPC) 102 % of control and 111 % of control | dose: 75.0 mg/kg/injection, schedule: Q01DX009 (ip), vehicle: Klucel (hydroxypropylcellulose) (HPC) 109 % of control | dose: 150.0 mg/kg/injection, schedule: Q01DX009 (ip), vehicle: Klucel (hydroxypropylcellulose) (HPC) 105 % of control and 111 % of control

COc1cc2c(cc1OC)C1CCN3C(=O)CCC3[N+]1(C)CC2 (stereo unspecified)
inactive: dose: 50.0 mg/kg/injection, schedule: Q01DX009 (ip), vehicle: saline 93 % of control | [16] 98 % of control | [14] 98 % of control | [15] 96 % of control

NC1C(O)C(N)C(O)C(O)C1O (stereo unspecified)
inactive: dose: 100.0 mg/kg/injection, schedule: Q01DX009 (ip), vehicle: saline sonified 90 % of control | dose: 200.0 mg/kg/injection, schedule: Q01DX009 (ip), vehicle: saline sonified 95 % of control | dose: 400.0 mg/kg/injection, schedule: Q01DX009 (ip), vehicle: saline sonified 95 % of control

O=C(Cc1ccccc1)c1ccccc1
inactive: [12] 102 % of control | [13] 102 % of control | [17] 94 % of control

O=C1OC2CC1CCC2Br (stereo unspecified)
inactive: [5] 94 % of control | [7] 94 % of control | [8] 97 % of control

O.O=C(O)CN(CCN(CC(=O)O)CC(=O)O)CC(=O)O.[Rh+2]
inactive: [16] 100 % of control | dose: 200.0 mg/kg/injection, schedule: Q01DX009 (ip), vehicle: saline 94 % of control | dose: 200.0 mg/kg/injection, schedule: Q04DX003 (ip), vehicle: saline sonified 95 % of control | dose: 400.0 mg/kg/injection, schedule: Q01DX009 (ip), vehicle: saline 96 % of control

CC(=O)NC1=C(Sc2ccc([N+](=O)[O-])cc2)C(=O)c2ccccc2C1=O
inactive: [9] 98 % of control

Cc1ccc(S(=O)(=O)OC2CCC3(C)C(CCC4C3CCC3(C)C(C(C)CCCC(C)C)CCC43)C2)cc1 (stereo unspecified)
inactive: [5] 92 % of control | [7] 90 % of control | [8] 89 % of control

CC(=O)OC1(c2ccccc2)CC(=O)C=C1c1ccccc1 (stereo unspecified)
inactive: [18] 102 % of control | [19] 91 % of control | [10] 87 % of control

N#CC(c1c[nH]c2ccccc12)N1CCOCC1 (stereo unspecified)
inactive: [18] 105 % of control | [19] 100 % of control

CCSCCN1C(=O)C2C3CCC(O3)C2C1=O (stereo unspecified)
inactive: [10] 93 % of control | [11] 93 % of control

CC1NC(=O)OC12CCCCC2 (stereo unspecified)
inactive: [4] 101 % of control | [6] 107 % of control

O=C(O)c1ccc(Cl)c2ncccc12
inactive: dose: 37.5 mg/kg/injection, schedule: Q01DX009 (ip), vehicle: saline 100 % of control | dose: 75.0 mg/kg/injection, schedule: Q01DX009 (ip), vehicle: saline 95 % of control | dose: 75.0 mg/kg/injection, schedule: Q04DX003 (ip), vehicle: saline 100 % of control | dose: 150.0 mg/kg/injection, schedule: Q01DX009 (ip), vehicle: saline 105 % of control | dose: 150.0 mg/kg/injection, schedule: Q04DX003 (ip), vehicle: saline 97 % of control | dose: 300.0 mg/kg/injection, schedule: Q04DX003 (ip), vehicle: saline 95 % of control

Cc1ccc(NC(=O)Nc2ccc(Nc3ccccc3)cc2)c([N+](=O)[O-])c1
inactive: dose: 100.0 mg/kg/injection, schedule: Q01DX009 (ip), vehicle: Klucel (hydroxypropylcellulose) (HPC) 89 % of control | dose: 200.0 mg/kg/injection, schedule: Q01DX009 (ip), vehicle: Klucel (hydroxypropylcellulose) (HPC) 92 % of control | dose: 400.0 mg/kg/injection, schedule: Q01DX009 (ip), vehicle: Klucel (hydroxypropylcellulose) (HPC) 89 % of control

COC(=O)c1cc(NC(C)=O)ccc1S(=O)(=O)c1ccc(NC(C)=O)cc1C(=O)OC
inactive: [5] 101 % of control | [7] 101 % of control | [8] 97 % of control

CCC1(C)CCC2C(CCC3C(C)(C(=O)OC)CCCC23C)C12SCCS2 (stereo unspecified)
inactive: [12] 86 % of control | [13] 89 % of control | [17] 96 % of control

CCOP(=S)(N1CC1)N1CC1
inactive: dose: 100.0 mg/kg/injection, schedule: Q01DX009 (ip), vehicle: other 94 % of control | dose: 200.0 mg/kg/injection, schedule: Q01DX009 (ip), vehicle: other 100 % of control | dose: 400.0 mg/kg/injection, schedule: Q01DX009 (ip), vehicle: other 90 % of control
